Assay: mn = molality of the nth substance listed, in mol/kg
Details: for surface tension liquid-gas: Pendant drop shape; for electrical conductivity: 100 kPa, Liquid, Mettler Toledo inLab 710

CCCCCCCCCCCC[N+](C)(C)CCCCCC[N+](C)(C)CCCCCCCCCCCC.[Br-].[Br-] + O
Details | electrical conductivity [S/m] | surface tension liquid-gas [mN/m]
298.15 K, m1 = 0.0001 | – | 61.45
298.15 K, m1 = 0.0002 | – | 53.1
298.15 K, m1 = 0.0004 | – | 47.33
298.15 K, m1 = 0.00056 | 0.0115 | –
298.15 K, m1 = 0.00059 | 0.0123 | –
298.15 K, m1 = 0.0006 | – | 42.35
298.15 K, m1 = 0.00063 | 0.0132 | –
298.15 K, m1 = 0.00067 | 0.0138 | –
298.15 K, m1 = 0.0007 | – | 40.01
298.15 K, m1 = 0.00071 | 0.0147 | –
298.15 K, m1 = 0.00077 | 0.0159 | –
298.15 K, m1 = 0.0008 | – | 38.21
298.15 K, m1 = 0.00083 | 0.017 | –
298.15 K, m1 = 0.00085 | – | 38.13
298.15 K, m1 = 0.00087 | 0.0176 | –
298.15 K, m1 = 0.0009 | – | 37.83
298.15 K, m1 = 0.00091 | 0.0182 | –
298.15 K, m1 = 0.00095 | 0.0188 | –
298.15 K, m1 = 0.001 | 0.0194 | 37.53
298.15 K, m1 = 0.00105 | 0.02 | –
298.15 K, m1 = 0.0011 | – | 37.34
298.15 K, m1 = 0.00111 | 0.0206 | –
298.15 K, m1 = 0.00118 | 0.0212 | –
298.15 K, m1 = 0.0012 | – | 37.28
298.15 K, m1 = 0.00125 | 0.0219 | –
298.15 K, m1 = 0.00133 | 0.0225 | –
298.15 K, m1 = 0.00143 | 0.0231 | –
298.15 K, m1 = 0.0015 | – | 37.38
298.15 K, m1 = 0.00154 | 0.024 | –
298.15 K, m1 = 0.00167 | 0.0249 | –
298.15 K, m1 = 0.00182 | 0.0259 | –
298.15 K, m1 = 0.002 | 0.0269 | 37.23
303.15 K, m1 = 0.00057 | 0.0136 | –
303.15 K, m1 = 0.00061 | 0.0143 | –
303.15 K, m1 = 0.00065 | 0.0151 | –
303.15 K, m1 = 0.00068 | 0.0158 | –
303.15 K, m1 = 0.00071 | 0.0166 | –
303.15 K, m1 = 0.00075 | 0.0173 | –
303.15 K, m1 = 0.0008 | 0.0183 | –
303.15 K, m1 = 0.00083 | 0.0189 | –
303.15 K, m1 = 0.00087 | 0.0196 | –
303.15 K, m1 = 0.00091 | 0.0202 | –
303.15 K, m1 = 0.00095 | 0.0209 | –
303.15 K, m1 = 0.001 | 0.0216 | –
303.15 K, m1 = 0.00105 | 0.0223 | –
303.15 K, m1 = 0.00111 | 0.023 | –
303.15 K, m1 = 0.00118 | 0.0237 | –
303.15 K, m1 = 0.00125 | 0.0244 | –
303.15 K, m1 = 0.00133 | 0.0252 | –
303.15 K, m1 = 0.00143 | 0.0261 | –
303.15 K, m1 = 0.00154 | 0.027 | –
303.15 K, m1 = 0.0016 | 0.0276 | –
303.15 K, m1 = 0.00167 | 0.0281 | –
303.15 K, m1 = 0.00174 | 0.0287 | –
303.15 K, m1 = 0.00182 | 0.0293 | –
303.15 K, m1 = 0.0019 | 0.03 | –
303.15 K, m1 = 0.002 | 0.0307 | –
308.15 K, m1 = 0.00065 | 0.0167 | –
308.15 K, m1 = 0.00068 | 0.0175 | –
308.15 K, m1 = 0.00071 | 0.0182 | –
308.15 K, m1 = 0.00075 | 0.0193 | –
308.15 K, m1 = 0.0008 | 0.0203 | –
308.15 K, m1 = 0.00083 | 0.0209 | –
308.15 K, m1 = 0.00087 | 0.0217 | –
308.15 K, m1 = 0.00091 | 0.0225 | –
308.15 K, m1 = 0.00095 | 0.0232 | –
308.15 K, m1 = 0.001 | 0.024 | –
308.15 K, m1 = 0.00105 | 0.0248 | –
308.15 K, m1 = 0.00111 | 0.0257 | –
308.15 K, m1 = 0.00118 | 0.0266 | –
308.15 K, m1 = 0.00125 | 0.0275 | –
308.15 K, m1 = 0.00133 | 0.0284 | –
308.15 K, m1 = 0.00143 | 0.0294 | –
308.15 K, m1 = 0.00154 | 0.0306 | –
308.15 K, m1 = 0.0016 | 0.0312 | –

Source: the NIST ThermoML archive (doi:10.1021/je500513b)
